Numbers after ± are expanded uncertainties.
Settings: 313.15 K; Liquid; Closed cell (Static) method

## CCC(C)O (stereo not drawn) [butan-2-ol]
  vapor or sublimation pressure: 6.045 ± 0.02 kPa

## CC(C)CC(C)(C)C [2,2,4-trimethylpentane]
  vapor or sublimation pressure: 12.95 ± 0.031 kPa

## C=CCCCC [hex-1-ene]
  vapor or sublimation pressure: 44.98 ± 0.2 kPa

— the NIST ThermoML archive (doi:10.1016/j.fluid.2014.02.018)
